Reference: article PMC3005334 (Cell, 2010)

Key:
Erg1 = target: T1, Erg1 (Saccharomyces cerevisiae, UniProt P32476); type: binding; settings: in vivo bound, LC-MS
T1 sequence (P32476 1-496): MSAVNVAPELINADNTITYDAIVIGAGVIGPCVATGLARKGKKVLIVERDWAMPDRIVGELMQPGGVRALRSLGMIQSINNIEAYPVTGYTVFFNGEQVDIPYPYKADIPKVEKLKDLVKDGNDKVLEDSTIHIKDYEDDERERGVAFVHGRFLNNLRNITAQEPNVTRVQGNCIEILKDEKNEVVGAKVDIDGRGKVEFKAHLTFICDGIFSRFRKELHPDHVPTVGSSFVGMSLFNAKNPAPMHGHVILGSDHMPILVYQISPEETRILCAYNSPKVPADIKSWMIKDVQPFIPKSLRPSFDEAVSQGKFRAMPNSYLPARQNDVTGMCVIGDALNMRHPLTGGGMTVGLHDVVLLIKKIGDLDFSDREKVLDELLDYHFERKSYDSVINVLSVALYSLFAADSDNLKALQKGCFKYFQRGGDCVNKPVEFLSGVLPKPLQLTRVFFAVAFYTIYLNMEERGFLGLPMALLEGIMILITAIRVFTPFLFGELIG

Erg3 = target: T2, Erg3 (Saccharomyces cerevisiae, UniProt P32353); type: binding; settings: in vivo bound, LC-MS; known substrate
T2 sequence (P32353 1-365): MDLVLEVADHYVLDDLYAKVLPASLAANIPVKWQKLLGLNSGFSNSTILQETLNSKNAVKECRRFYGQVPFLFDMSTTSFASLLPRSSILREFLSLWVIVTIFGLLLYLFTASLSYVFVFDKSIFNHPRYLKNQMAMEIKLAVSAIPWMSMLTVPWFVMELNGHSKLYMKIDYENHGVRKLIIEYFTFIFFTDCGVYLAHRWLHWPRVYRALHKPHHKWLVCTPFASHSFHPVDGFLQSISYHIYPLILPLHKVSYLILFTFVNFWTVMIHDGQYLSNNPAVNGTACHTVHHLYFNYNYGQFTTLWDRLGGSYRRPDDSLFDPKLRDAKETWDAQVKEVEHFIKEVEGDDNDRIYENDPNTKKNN

[1] = test system: 21 ergosterol biosynthetic proteins (Erg proteins); settings: of 21 Erg enzymes, above the control
ypk1Δ cells [2] = settings: ref Gupta et al., 2003; Hillenmeyer et al., 2008; cited from earlier work
ypk1Δ cells [3] = test: Growth of kinase deletion strain in the presence of ergosterol inhibitor; type: cell-based, Saccharomyces cerevisiae; settings: different concentrations of inhibitor, cell density

| SMILES | association with Erg1 among the 21 Erg proteins (Erg1) | number of Erg proteins the metabolite co-purified with [1] | further results |
| --- | --- | --- | --- |
| CC(C)=CCC[C@@H](C)[C@H]1CC[C@H]2C3=C(CC[C@]12C)[C@@]1(C)CCC(=O)C[C@@H]1CC3 [5α-cholesta-8,24-dien-3-one] | specifically associated only with Erg1 | – | – |
| CC(C)=CCC/C(C)=C/CC/C(C)=C/CC/C=C(\C)CC/C=C(\C)CC[C@@H]1OC1(C)C [(S)-2,3-epoxysqualene] | specifically associated only with Erg1 | – | – |
| C=C(CC[C@@H](C)[C@H]1CC[C@H]2C3=CC[C@H]4C[C@@H](O)CC[C@]4(C)[C@H]3CC[C@]12C)C(C)C [episterol] | – | 3 | binding to Erg3 (Erg3): bound |
| CC(C)=CCC[C@@H](C)[C@H]1CC[C@@]2(C)C3=C(CC[C@]12C)[C@@]1(C)CC[C@H](O)C(C)(C)[C@@H]1CC3 [lanosterol] | – | 5 | – |
| C[C@@H]1[C@H](O)[C@@H](C)/C=C/C=C/CC/C=C/C=C/C=C/C=C/C(O[C@H]2O[C@H](C)[C@@H](O)[C@H](N)[C@@H]2O)CC2O[C@](O)(CC(O)C(O)CCC(O)CC(O)CC(O)CC(=O)O[C@H]1C)CC(O)C2C(=O)O (stereo partly shown) [nystatin] | – | – | sensitivity of yeast strains lacking Ypk1 (ypk1Δ cells [2]): sensitive; growth of ypk1Δ cells (ypk1Δ cells [3]): sensitive |
